One molecule from ChEMBL document CHEMBL3813623, “Novel approaches to map small molecule-target interactions” (Bioorg Med Chem, 2016) can be followed below.

This assay deals with T1, Bile acid receptor (Homo sapiens, UniProt Q96RI1).
T1 sequence (Q96RI1 whole entry): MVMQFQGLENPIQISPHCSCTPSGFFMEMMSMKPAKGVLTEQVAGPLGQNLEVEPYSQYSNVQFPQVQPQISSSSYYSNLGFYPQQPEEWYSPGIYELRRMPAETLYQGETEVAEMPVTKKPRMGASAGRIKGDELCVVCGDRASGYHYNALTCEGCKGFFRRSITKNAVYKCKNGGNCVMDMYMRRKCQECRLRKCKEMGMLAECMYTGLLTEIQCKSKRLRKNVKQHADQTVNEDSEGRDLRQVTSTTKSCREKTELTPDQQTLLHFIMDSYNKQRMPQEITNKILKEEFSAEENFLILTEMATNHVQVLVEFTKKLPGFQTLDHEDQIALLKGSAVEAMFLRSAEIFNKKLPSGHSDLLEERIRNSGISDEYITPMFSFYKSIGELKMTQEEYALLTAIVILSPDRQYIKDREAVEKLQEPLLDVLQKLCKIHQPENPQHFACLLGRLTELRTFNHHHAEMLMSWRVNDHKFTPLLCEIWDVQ
Nature of the assay: Agonist activity at farnesoid x receptor(unknown origin).

With `CNC(=O)O[C@@H](CC(C)C)c1nc([C@H]2OC(=O)/C(C)=C/C/C(C)=C/[C@@H](O)[C@@H](C)\C=C(C)/C=C(C)\C=C\[C@@H](O)[C@H](C)[C@H](OC)/C(C)=C/C=C/[C@@H]2C)cs1` [ARCHAZOLID A], the EC50 came out at 200 nM.
